Laboratory results as given in patent US20240140957A1, “BRIDGED COMPOUNDS AS KRAS G12D INHIBITOR AND DEGRADER AND THE USE THEREOF” (BeiGene Switzerland GmbH, priority 2021, published 2024).

Tests used:
GDP-loaded KRAS G12D = GDP-loaded KRAS G12D (Homo sapiens, UniProt P01116, G12D); assay: KRAS G12D Probe Displacement Assay; assay type: binding; conditions: KRAS G12D 0.5 nM, biotinylated probe 2 4 nM; read-out: KRAS G12D Probe Displacement Assay IC50
[1] = test system: pERK1/2 (THR202/TYR204) in AsPC-1 cells; assay: pERK Assay (HTRF) in AsPC-1 cells; assay type: cell-based; conditions: Homo sapiens, ASPC1, 2 h compound treatment
GDP-loaded WT KRAS = GDP-loaded WT KRAS (Homo sapiens, UniProt P01116); assay: KRAS WT Probe Displacement Assay; assay type: binding; conditions: WT KRAS 3 nM, biotinylated probe 1 60 nM; read-out: KRAS WT Probe Displacement Assay IC50
GDP-loaded WT KRAS, sequence (P01116 1-188 isoform P01116-2): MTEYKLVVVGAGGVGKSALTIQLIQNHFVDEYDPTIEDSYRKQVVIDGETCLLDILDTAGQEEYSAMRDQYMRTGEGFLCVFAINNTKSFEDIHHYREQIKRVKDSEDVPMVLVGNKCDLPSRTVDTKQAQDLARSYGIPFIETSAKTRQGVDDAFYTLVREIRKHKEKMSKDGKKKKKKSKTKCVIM

GDP-loaded KRAS G12D, sequence (P01116 1-188 isoform P01116-2 G12D): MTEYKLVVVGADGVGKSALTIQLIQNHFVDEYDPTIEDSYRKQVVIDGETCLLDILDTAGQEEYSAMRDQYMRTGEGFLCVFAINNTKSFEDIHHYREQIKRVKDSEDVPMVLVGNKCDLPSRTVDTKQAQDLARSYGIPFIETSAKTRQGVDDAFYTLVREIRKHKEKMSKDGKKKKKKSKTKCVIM

SMILES: Nc1cc(Cl)c(C(F)(F)F)c(-c2c(Cl)cc3c(N4CC5CCC(C4)N5)nc(OC[C@@]45CCCN4C[C@H](F)C5)nc3c2F)n1 [Example E65, 6-(4-(3,8-diazabicyclo[3.2.1]octan-3-yl)-6-chloro-8-fluoro-2-(((2R,7aS)-2-fluorotetrahydro-1H-pyrrolizin-7a(5H)-yl)methoxy)quinazolin-7-yl)-4-chloro-5-(trifluoromethyl)pyridin-2-amine]
- IC50 (GDP-loaded KRAS G12D): 0.44 nM
- IC50 [1]: 65 nM
- IC50 (GDP-loaded WT KRAS): 20.5 nM

SMILES: C=Cc1cc2c(N3CC4CCC(C3)N4)nc(OC[C@@H]3C[C@@H](F)CN3C)nc2c(F)c1-c1ccc(F)c2sc(N)nc12 [Example E66, 4-(4-((3,8-diazabicyclo[3.2.1]octan-3-yl)-8-fluoro-2-(((2S,4R)-4-fluoro-1-methylpyrrolidin-)-yl)methoxy)-6-vinylquinazolin-7-yl)-7-fluorobenzo[d]thiazol-2-amine]
- IC50 (GDP-loaded KRAS G12D): 2.2 nM
- IC50 [1]: 480 nM
- IC50 (GDP-loaded WT KRAS): 72 nM

SMILES: CCc1cc2c(N3CC4CCC(C3)N4)nc(OC[C@@]34CCCN3C[C@H](F)C4)nc2c(F)c1-c1ccc(F)c2sc(N)nc12 [Example E67, 4-(4-(3,8-diazabicyclo[3.2.1]octan-3-yl)-6-ethyl-8-fluoro-2-(((2R,7aS)-2-fluorotetrahydro-1H-pyrrolizin-7a(5H)-yl)methoxy)quinazolin-7-yl)-7-fluorobenzo[d]thiazol-2-amine]
- IC50 (GDP-loaded KRAS G12D): 0.45 nM
- IC50 [1]: 95 nM
- IC50 (GDP-loaded WT KRAS): 9.9 nM

SMILES: CN(C)CC1(COc2nc(N3CC4CCC(C3)N4)c3cc(Cl)c(-c4ccc(F)c5sc(N)nc45)c(F)c3n2)CCC1 [Example E68, 4-(4-(3,8-diazabicyclo[3.2.1]octan-3-yl)-6-chloro-2-((1-((dimethylamino)-methyl)cyclobutyl)methoxy)-8-fluoroquinazolin-7-yl)-7-fluorobenzo[d]thiazol-2-amine]
- IC50 (GDP-loaded KRAS G12D): 0.58 nM
- IC50 [1]: 590 nM
- IC50 (GDP-loaded WT KRAS): 45 nM

SMILES: C=C(C)c1cc2c(N3CC4CCC(C3)N4)nc(OC[C@@]34CCCN3C[C@H](F)C4)nc2c(F)c1-c1ccc(F)c2sc(N)nc12 [Example E69, 4-(4-(3,8-diazabicyclo[3.2.1]octan-3-yl)-8-fluoro-2-(((2R,7aS)-2-fluorotetrahydro-1H-pyrrolizin-7a(5H)-yl)methoxy)-6-(prop-1-en-2-yl)quinazolin-7-yl)-7-fluorobenzo[d]thiazol-2-amine]
- IC50 (GDP-loaded KRAS G12D): 0.72 nM
- IC50 [1]: 216 nM
- IC50 (GDP-loaded WT KRAS): 72 nM

SMILES: CN(C)CC1(COc2nc(N3CC4CCC(C3)N4)c3cc(Cl)c(-c4ccc(F)c5sc(N)nc45)c(F)c3n2)CC1 [Example E70, 4-(4-(3,8-diazabicyclo[3.2.1]octan-3-yl)-6-chloro-2-((1-((dimethylamino)methyl)cyclopropyl)methoxy)-8-fluoroquinazolin-7-yl)-7-fluorobenzo[d]thiazol-2-amine]
- IC50 (GDP-loaded KRAS G12D): 0.35 nM
- IC50 [1]: 927 nM
- IC50 (GDP-loaded WT KRAS): 32 nM

SMILES: CC(C)c1cc2c(N3CC4CCC(C3)N4)nc(OC[C@@]34CCCN3C[C@H](F)C4)nc2c(F)c1-c1ccc(F)c2sc(N)nc12 [Example E71, 4-(4-(3,8-diazabicyclo[3.2.1]octan-3-yl)-8-fluoro-2-(((2R,7aS)-2-fluorotetrahydro-1H-pyrrolizin-7a(5H)-yl)methoxy)-6-isopropylquinazolin-7-yl)-7-fluorobenzo[d]thiazol-2-amine]
- IC50 (GDP-loaded KRAS G12D): 0.59 nM
- IC50 [1]: 137 nM
- IC50 (GDP-loaded WT KRAS): 37.8 nM

SMILES: C[C@@H](CN1CCC(F)CC1(C)C)Oc1nc(N2CC3CCC(C2)N3)c2cc(C(F)(F)F)c(-c3ccc(F)c4sc(N)nc34)c(F)c2n1 (stereo partly drawn) [Example E72, 4-(4-(3,8-diazabicyclo[3.2.1]octan-3-yl)-8-fluoro-2-(((2S)-1-(4-fluoro-2,2-dimethylpiperidin-1-yl)propan-2-yl)oxy)-6-(trifluoromethyl)quinazolin-7-yl)-7-fluorobenzo[d]thiazol-2-amine]
- IC50 (GDP-loaded KRAS G12D): 3.9 nM
- IC50 [1]: 1080 nM
- IC50 (GDP-loaded WT KRAS): 120 nM

SMILES: Cc1ccc(-c2c(C(F)(F)F)cc3c(N4CC5CCC(C4)N5)nc(OC[C@@]45CCCN4C[C@H](F)C5)nc3c2F)c2nc(N)sc12 [Example E73, 4-(4-(3,8-diazabicyclo[3.2.1]octan-3-yl)-8-fluoro-2-(((2R,7aS)-2-fluorotetrahydro-1H-pyrrolizin-7a(5H)-yl)methoxy)-6-(trifluoromethyl)quinazolin-7-yl)-7-methylbenzo[d]thiazol-2-amine]
- IC50 (GDP-loaded KRAS G12D): 0.57 nM
- IC50 [1]: 68 nM
- IC50 (GDP-loaded WT KRAS): 15.5 nM

SMILES: Nc1nc2c(-c3c(C(F)(F)F)cc4c(N5CC6CC(C5)N6)nc(OC[C@@]56CCCN5C[C@H](F)C6)nc4c3F)ccc(F)c2s1 [Example E74, 4-(4-(3,6-diazabicyclo[3.1.1]heptan-3-yl)-8-fluoro-2-(((2R,7aS)-2-fluorotetrahydro-1H-pyrrolizin-7a(5H)-yl)methoxy)-6-(trifluoromethyl)quinazolin-7-yl)-7-fluorobenzo[d]thiazol-2-amine]
- IC50 (GDP-loaded KRAS G12D): 0.42 nM
- IC50 [1]: 349 nM
- IC50 (GDP-loaded WT KRAS): 4.8 nM

SMILES: Nc1nc2c(-c3c(Cl)cc4c(N5CC6CCC(C5)N6)nc(OC[C@@]56CCCN5C[C@H](F)C6)nc4c3F)c(F)cc(F)c2s1 [Example E75, 4-(4-(3,8-diazabicyclo[3.2.1]octan-3-yl)-6-chloro-8-fluoro-2-(((2R,7aS)-2-fluorotetrahydro-H-pyrrolizin-7a(5H)-yl)methoxy)quinazolin-7-yl)-5,7-difluorobenzo[d]thiazol-2-amine]
- IC50 (GDP-loaded KRAS G12D): 0.23 nM
- IC50 [1]: 40 nM
- IC50 (GDP-loaded WT KRAS): 1.8 nM

SMILES: Cc1c(-c2ccc(F)c3sc(N)nc23)c(C(F)(F)F)cc2c(N3CC4CCC(C3)N4)nc(OC[C@@]34CCCN3C[C@H](F)C4)nc12 [Example E76, 4-(4-(3,8-diazabicyclo[3.2.1]octan-3-yl)-2-(((2R,7aS)-2-fluorotetrahydro-1H-pyrrolizin-7a(5H)-yl)methoxy)-8-methyl-6-(trifluoromethyl)quinazolin-7-yl)-7-fluorobenzo[d]thiazol-2-amine]
- IC50 (GDP-loaded KRAS G12D): 0.12 nM
- IC50 [1]: 58 nM
- IC50 (GDP-loaded WT KRAS): 4.8 nM

SMILES: Cc1cc(N)nc(-c2c(C(F)(F)F)cc3c(N4CC5CCC(C4)N5)nc(OC[C@@]45CCCN4C[C@H](F)C5)nc3c2F)c1C(F)(F)F [Example E77, 6-(4-(3,8-diazabicyclo[3.2.1]octan-3-yl)-8-fluoro-2-(((2R,7aS)-2-fluorotetrahydro-1H-pyrrolizin-7a(5H)-yl)methoxy)-6-(trifluoromethyl)quinazolin-7-yl)-4-methyl-5-(trifluoromethyl)pyridin-2-amine]
- IC50 (GDP-loaded KRAS G12D): 0.52 nM
- IC50 [1]: 122 nM
- IC50 (GDP-loaded WT KRAS): 33 nM

SMILES: Cc1c(F)c(N)nc(-c2c(Cl)cc3c(N4CC5CCC(C4)N5)nc(OC[C@@]45CCCN4C[C@H](F)C5)nc3c2F)c1C(F)(F)F [Example E78, 6-(4-(3,8-diazabicyclo[3.2.1]octan-3-yl)-6-chloro-8-fluoro-2-(((2R,7aS)-2-fluorotetrahydro-1H-pyrrolizin-7a(5H)-yl)methoxy)quinazolin-7-yl)-3-fluoro-4-methyl-5-(trifluoromethyl)pyridin-2-amine]
- IC50 (GDP-loaded KRAS G12D): 0.99 nM
- IC50 [1]: 159 nM
- IC50 (GDP-loaded WT KRAS): 101 nM

SMILES: Cc1cc(N)nc(-c2c(F)cc3c(N4CC5CCC(C4)N5)nc(OC[C@@]45CCCN4C[C@H](F)C5)nc3c2F)c1C(F)(F)F [Example E79, 6-(4-(3,8-diazabicyclo[3.2.1]octan-3-yl)-6,8-difluoro-2-(((2R,7aS)-2-fluorotetrahydro-1H-pyrrolizin-7a(5H)-yl)methoxy)quinazolin-7-yl)-4-methyl-5-(trifluoromethyl) pyridin-2-amine]
- IC50 (GDP-loaded KRAS G12D): 1.1 nM
- IC50 [1]: 153 nM
- IC50 (GDP-loaded WT KRAS): 178 nM

SMILES: Nc1cc(Cl)c(C(F)(F)F)c(-c2c(Cl)cc3c(N4CC5CCC(C4)N5)nc(OC[C@@]45CCCN4C[C@H](F)C5)nc3c2F)c1 [Example E80, 3-(4-(3,8-diazabicyclo[3.2.1]octan-3-yl)-6-chloro-8-fluoro-2-(((2R,7aS)-2-fluorotetrahydro-1H-pyrrolizin-7a(5H)-yl)methoxy)quinazolin-7-yl)-5-chloro-4-(trifluoromethyl)aniline]
- IC50 (GDP-loaded KRAS G12D): 0.66 nM
- IC50 [1]: 307 nM
- IC50 (GDP-loaded WT KRAS): 46 nM

SMILES: Oc1cccc(F)c1-c1c(Cl)cc2c(N3CC4CCC(C3)N4)nc(OC[C@@]34CCCN3C[C@H](F)C4)nc2c1F [Example E81, 2-(4-(3,8-diazabicyclo[3.2.1]octan-3-yl)-6-chloro-8-fluoro-2-(((2R,7aS)-2-fluorotetrahydro-1H-pyrrolizin-7a(5H)-yl)methoxy)quinazolin-7-yl)-3-fluorophenol]
- IC50 (GDP-loaded KRAS G12D): 6.9 nM
- IC50 [1]: 2380 nM
- IC50 (GDP-loaded WT KRAS): 990 nM

SMILES: Nc1nc2c(-c3c(C(F)(F)F)cc4c(N5CC6CCC(C5)N6)nc(OC[C@@]56CCCN5C[C@H](F)C6)nc4c3Cl)ccc(Cl)c2s1 [Example E82, 4-(4-(3,8-diazabicyclo[3.2.1]octan-3-yl)-8-chloro-2-(((2R,7aS)-2-fluorotetrahydro-1H-pyrrolizin-7a(5H)-yl)methoxy)-6-(trifluoromethyl)quinazolin-7-yl)-7-chlorobenzo[d]thiazol-2-amine]
- IC50 (GDP-loaded KRAS G12D): 0.3 nM
- IC50 [1]: 64 nM
- IC50 (GDP-loaded WT KRAS): 5 nM

SMILES: Nc1nc2c(-c3c(C(F)(F)F)cc4c(N5CC6CCC(C5)N6)nc(OC[C@@]56CCCN5C[C@H](F)C6)nc4c3F)ccc(Cl)c2s1 [Example E83, 4-(4-(3,8-diazabicyclo[3.2.1]octan-3-yl)-8-fluoro-2-(((2R,7aS)-2-fluorotetrahydro-1H-pyrrolizin-7a(5H)-yl)methoxy)-6-(trifluoromethyl)quinazolin-7-yl)-7-chlorobenzo[d]thiazol-2-amine]
- IC50 (GDP-loaded KRAS G12D): 0.13 nM
- IC50 [1]: 61 nM
- IC50 (GDP-loaded WT KRAS): 3.8 nM

SMILES: Nc1nc2c(-c3c(C(F)(F)F)cc4c(N5CC6CCC(C5)N6)nc(OC[C@@]56CCCN5C[C@H](F)C6)nc4c3F)c(F)cc(F)c2s1 [Example E84, 4-(4-(3,8-diazabicyclo[3.2.1]octan-3-yl)-8-fluoro-2-(((2R,7aS)-2-fluorotetrahydro-1H-pyrrolizin-7a(5H)-yl)methoxy)-6-(trifluoromethyl)quinazolin-7-yl)-5,7-difluorobenzo[d]thiazol-2-amine]
- IC50 (GDP-loaded KRAS G12D): 0.36 nM
- IC50 [1]: 28 nM
- IC50 (GDP-loaded WT KRAS): 2.4 nM
